From ChEMBL document CHEMBL1201862, “PubChem BioAssay data set” (2004)
Activity calls are given as the source filed them.

Assays:
[1] = system: Vero; assay: mammalian cell viability reduction – secondary assay, cytotoxicity control for West Nile virus antiviral project, dose response (AID 1650); assay type: functional; conditions: Chlorocebus sabaeus
[2] = system: INS1; assay: INS-1E survival protection against cytokine death – cell-based, luminescence, retest, dose response (AID 449756); assay type: functional; conditions: Rattus norvegicus;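 also: cell death triggered by IL-1 beta plus TNF-alpha plus IFN-gamma mixture; protective hits raise ATP signal compared with cytokine alone wells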
[3] = mitochondrial function rescue without frataxin homolog – Friedreich's ataxia, plus single-dose screen, dose response (AID 1465); assay type: functional;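 also: yeast depleted of Yfh1p frataxin homolog grown on glycerol needing respiration; WST-1 tetrazolium dye reduction as measure of cellular dehydrogenase metabolic activity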
[4] = luciferase reporter signal suppression in cells – H4 neuroglioma cells, luminescence, dose response (AID 1990); assay type: functional, cell-based
[5] = molecular target: Photoreceptor-specific nuclear receptor (Homo sapiens, UniProt Q9Y5X4); assay type: functional;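 also: potency for compounds that break the NR2E3 corepressor complex and count as activators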
[6] = Luminescence Cell-Based Dose Response HTS to Identify Inhibitors of 5'UTR Stem-Loop Driven Prion Protein mRNA Translation in H4 Neuroglioblastoma Cells. [Related pubchem assays: 1827 (Project Summary), 1813 (Primary HTS)]; assay type: functional
[7] = alpha-synuclein stem-loop luciferase translation blockers – H4 neuroglioma cells, luminescence, confirmation (AID 1988); assay type: functional, cell-based
[8] = molecular target: Galanin receptor type 2 (Homo sapiens, UniProt O43603); assay: Dose Response cell-based high-throughput screening assay to identify agonists of galanin receptor 2 (GALR2). [Related pubchem assays: 864 ]; assay type: functional
[9] = molecular target: Peroxisome proliferator-activated receptor gamma/Nuclear receptor corepressor 2 (Homo sapiens, UniProt P37231+Q9Y618); assay type: functional
[10] = molecular target: Neuropeptide Y receptor type 1 (Homo sapiens, UniProt P25929); assay type: functional;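 also: HEK293 cells with a CNG channel challenged with NPY then isoproterenol; potency as antagonist that reverses NPY suppression of cAMP signal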
[11] = molecular target: Neuropeptide Y receptor type 2 (Homo sapiens, UniProt P49146); assay type: functional, cell-based;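 also: HEK293 cells expressing the receptor and a CNG channel; stimulus was NPY near EC95 followed by isoproterenol to raise cAMP; antagonist potency measured as restoring cAMP signal that NPY suppresses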
[12] = HEK-293T viability loss after treatment – luminescence, T-cell screen hits, cytotoxicity control for TCR NF-kB inhibitor project, dose response (AID 489026); assay type: functional, cell-based;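 also: cells exposed to compound about 14 hours before the viability readout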
[13] = system: Streptococcus sp. 'group A'; assay: Streptococcus pyogenes SK(-)GAS viability under kanamycin – luminescence, BacTiterGlo, confirmation, counter-screen for streptokinase expression inhibitor project, dose response (AID 1900); assay type: functional, organism-based
[14] = system: Streptococcus; assay: Luminescence Microorganism-Based Dose Response Follow up to Identify Compounds Cytotoxic to Streptococcus. [Related pubchem assays: 1677 (Project Summary), 1915, 1914, 1902 (Retest at Dose), 1900 (Counter Screen), 1662 (Primary HTS)]; assay type: functional, organism-based
[15] = molecular target: T1, Streptokinase A (Streptococcus pyogenes serotype M1, UniProt P10520); assay: viability-normalized secreted streptokinase activity reduction – plasminogen activation absorbance, OD405, dose response (AID 1914); assay type: functional, Streptococcus pyogenes M1 GAS;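 also: secreted streptokinase activity via plasminogen activation per viability signal from cell pellet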
T1 sequence (P10520 whole entry): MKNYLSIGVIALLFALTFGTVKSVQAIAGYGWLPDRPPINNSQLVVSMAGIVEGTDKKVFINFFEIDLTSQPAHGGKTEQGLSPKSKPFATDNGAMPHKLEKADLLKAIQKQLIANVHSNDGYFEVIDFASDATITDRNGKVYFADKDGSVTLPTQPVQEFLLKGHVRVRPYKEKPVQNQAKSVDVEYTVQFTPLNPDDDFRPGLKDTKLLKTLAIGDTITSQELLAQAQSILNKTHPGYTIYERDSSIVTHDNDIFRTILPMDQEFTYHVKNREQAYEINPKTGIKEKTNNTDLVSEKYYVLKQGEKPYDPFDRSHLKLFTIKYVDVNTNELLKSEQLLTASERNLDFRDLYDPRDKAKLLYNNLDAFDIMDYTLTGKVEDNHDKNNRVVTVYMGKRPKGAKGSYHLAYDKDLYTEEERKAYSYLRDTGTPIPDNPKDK

[16] = system: Streptococcus; assay: GAS UMAA2166 growth inhibition – luminescence, BacTiterGlo, counter-screen for streptokinase expression inhibitor project, dose response (AID 1915); assay type: functional, organism-based;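 also: potency for reduction of bacterial viability or growth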
[17] = molecular target: Sphingosine 1-phosphate receptor 2 (Homo sapiens, UniProt O95136); assay: Dose Response Cell Based Assay for Agonists of the S1P2 Receptor of Purchased Analogues. [Related pubchem assays: 729, 843, 854, 736 ]; assay type: functional
Chain of Sphingosine 1-phosphate receptor 2 (O95136 whole entry): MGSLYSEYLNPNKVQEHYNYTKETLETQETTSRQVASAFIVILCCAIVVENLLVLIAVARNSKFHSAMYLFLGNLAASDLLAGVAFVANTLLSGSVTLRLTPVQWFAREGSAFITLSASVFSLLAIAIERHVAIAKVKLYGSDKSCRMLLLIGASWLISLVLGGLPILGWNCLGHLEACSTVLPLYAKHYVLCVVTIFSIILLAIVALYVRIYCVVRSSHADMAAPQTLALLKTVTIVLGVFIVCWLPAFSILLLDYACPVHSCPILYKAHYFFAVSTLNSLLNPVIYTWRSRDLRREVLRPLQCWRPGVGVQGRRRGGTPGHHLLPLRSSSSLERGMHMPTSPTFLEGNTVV

Chain of Peroxisome proliferator-activated receptor gamma/Nuclear receptor corepressor 2 (P37231 whole entry): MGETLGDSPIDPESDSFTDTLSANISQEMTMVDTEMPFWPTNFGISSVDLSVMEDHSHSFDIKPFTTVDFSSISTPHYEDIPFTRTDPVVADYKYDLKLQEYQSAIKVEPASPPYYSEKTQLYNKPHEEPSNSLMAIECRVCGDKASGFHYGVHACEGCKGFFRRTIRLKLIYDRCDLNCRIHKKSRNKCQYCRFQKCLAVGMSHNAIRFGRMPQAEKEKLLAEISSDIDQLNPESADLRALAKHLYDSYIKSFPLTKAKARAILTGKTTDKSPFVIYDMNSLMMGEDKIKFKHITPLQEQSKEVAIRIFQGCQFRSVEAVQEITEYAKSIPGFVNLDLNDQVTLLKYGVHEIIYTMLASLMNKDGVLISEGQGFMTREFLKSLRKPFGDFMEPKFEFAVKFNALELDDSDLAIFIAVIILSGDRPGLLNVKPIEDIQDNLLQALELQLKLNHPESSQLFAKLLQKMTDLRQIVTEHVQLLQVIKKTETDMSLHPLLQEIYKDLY
Chain of Peroxisome proliferator-activated receptor gamma/Nuclear receptor corepressor 2 (Q9Y618 whole entry): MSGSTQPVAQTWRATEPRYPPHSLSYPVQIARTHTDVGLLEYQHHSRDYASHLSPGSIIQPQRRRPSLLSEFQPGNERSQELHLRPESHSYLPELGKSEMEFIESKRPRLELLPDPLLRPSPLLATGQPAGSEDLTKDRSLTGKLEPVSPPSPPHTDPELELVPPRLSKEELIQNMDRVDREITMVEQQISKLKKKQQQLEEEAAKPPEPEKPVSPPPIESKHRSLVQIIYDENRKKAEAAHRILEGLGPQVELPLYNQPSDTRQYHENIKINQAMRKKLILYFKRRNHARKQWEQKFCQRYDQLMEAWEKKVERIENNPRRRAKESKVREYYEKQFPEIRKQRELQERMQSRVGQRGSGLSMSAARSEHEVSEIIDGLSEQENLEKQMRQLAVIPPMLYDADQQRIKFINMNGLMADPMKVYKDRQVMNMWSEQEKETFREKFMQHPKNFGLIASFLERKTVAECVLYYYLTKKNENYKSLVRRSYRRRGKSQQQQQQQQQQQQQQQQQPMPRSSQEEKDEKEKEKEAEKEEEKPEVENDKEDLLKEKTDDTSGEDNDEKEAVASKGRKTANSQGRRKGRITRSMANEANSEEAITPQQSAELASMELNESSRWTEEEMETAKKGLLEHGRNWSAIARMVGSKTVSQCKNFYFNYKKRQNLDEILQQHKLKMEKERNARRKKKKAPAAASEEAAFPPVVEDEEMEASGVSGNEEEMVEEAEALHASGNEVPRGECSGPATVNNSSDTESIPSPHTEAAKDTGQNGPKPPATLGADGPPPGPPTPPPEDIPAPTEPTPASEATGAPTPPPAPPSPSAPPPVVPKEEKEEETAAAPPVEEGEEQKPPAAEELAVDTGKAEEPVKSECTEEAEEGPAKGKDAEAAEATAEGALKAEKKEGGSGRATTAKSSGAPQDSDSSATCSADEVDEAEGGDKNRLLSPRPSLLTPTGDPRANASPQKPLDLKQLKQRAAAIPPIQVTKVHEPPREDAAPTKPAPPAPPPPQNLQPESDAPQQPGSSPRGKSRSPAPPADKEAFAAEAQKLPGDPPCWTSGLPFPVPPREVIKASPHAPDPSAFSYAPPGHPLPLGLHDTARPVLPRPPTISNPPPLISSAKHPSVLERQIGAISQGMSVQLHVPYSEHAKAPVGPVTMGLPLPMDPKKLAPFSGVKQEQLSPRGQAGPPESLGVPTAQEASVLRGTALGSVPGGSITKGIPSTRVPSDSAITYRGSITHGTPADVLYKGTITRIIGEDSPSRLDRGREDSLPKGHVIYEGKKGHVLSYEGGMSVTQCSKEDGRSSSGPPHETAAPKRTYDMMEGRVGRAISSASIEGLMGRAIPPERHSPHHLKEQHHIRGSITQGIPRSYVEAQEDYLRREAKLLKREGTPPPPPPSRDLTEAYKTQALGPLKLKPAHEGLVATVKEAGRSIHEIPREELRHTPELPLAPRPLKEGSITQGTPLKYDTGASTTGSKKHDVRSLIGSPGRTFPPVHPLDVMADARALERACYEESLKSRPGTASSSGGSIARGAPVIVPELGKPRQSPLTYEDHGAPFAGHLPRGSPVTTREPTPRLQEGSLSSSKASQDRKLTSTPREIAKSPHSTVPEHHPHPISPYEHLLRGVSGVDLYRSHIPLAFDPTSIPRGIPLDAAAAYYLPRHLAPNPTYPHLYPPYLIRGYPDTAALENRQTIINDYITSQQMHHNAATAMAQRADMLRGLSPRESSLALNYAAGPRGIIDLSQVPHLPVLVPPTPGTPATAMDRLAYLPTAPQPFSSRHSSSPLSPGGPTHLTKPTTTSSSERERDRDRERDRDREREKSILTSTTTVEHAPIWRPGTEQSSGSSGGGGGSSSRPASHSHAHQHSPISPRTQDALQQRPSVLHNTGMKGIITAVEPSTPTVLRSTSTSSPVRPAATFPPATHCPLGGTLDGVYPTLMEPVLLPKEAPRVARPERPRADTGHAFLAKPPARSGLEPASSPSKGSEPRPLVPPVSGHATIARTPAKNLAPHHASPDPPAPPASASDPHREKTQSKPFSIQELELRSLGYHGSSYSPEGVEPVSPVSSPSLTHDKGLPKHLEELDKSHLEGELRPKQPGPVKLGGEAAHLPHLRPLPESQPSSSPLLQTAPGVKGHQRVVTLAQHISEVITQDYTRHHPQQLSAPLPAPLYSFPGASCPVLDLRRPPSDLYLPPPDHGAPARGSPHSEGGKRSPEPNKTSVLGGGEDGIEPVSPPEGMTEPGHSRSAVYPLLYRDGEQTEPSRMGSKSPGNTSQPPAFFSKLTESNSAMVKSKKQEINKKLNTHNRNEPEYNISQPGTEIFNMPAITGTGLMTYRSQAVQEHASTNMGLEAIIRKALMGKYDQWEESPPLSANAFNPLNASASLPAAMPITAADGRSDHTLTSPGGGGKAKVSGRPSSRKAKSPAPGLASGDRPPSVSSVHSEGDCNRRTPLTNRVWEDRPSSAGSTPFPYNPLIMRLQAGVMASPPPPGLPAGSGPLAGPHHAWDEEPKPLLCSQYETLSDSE
Chain of Neuropeptide Y receptor type 2 (P49146 whole entry): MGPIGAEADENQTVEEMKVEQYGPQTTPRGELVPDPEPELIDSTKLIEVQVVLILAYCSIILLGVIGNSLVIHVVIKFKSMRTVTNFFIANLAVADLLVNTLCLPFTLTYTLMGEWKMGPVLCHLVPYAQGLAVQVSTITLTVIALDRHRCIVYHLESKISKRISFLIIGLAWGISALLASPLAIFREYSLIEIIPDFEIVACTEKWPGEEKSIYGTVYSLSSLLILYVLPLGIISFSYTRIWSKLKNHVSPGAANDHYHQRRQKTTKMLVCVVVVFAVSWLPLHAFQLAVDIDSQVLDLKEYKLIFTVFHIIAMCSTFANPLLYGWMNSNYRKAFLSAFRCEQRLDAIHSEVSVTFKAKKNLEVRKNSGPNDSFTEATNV
Chain of Photoreceptor-specific nuclear receptor (Q9Y5X4 whole entry): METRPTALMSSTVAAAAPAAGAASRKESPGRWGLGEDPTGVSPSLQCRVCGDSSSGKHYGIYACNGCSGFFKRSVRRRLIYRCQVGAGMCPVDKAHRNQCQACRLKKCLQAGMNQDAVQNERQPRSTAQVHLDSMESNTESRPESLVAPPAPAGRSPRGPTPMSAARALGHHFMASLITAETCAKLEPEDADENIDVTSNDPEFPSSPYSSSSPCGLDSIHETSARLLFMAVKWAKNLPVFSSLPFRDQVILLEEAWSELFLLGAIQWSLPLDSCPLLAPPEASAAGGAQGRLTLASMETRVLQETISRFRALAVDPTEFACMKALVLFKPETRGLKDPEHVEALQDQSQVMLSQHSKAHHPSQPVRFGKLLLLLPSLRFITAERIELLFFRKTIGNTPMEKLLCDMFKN
Chain of Neuropeptide Y receptor type 1 (P25929 whole entry): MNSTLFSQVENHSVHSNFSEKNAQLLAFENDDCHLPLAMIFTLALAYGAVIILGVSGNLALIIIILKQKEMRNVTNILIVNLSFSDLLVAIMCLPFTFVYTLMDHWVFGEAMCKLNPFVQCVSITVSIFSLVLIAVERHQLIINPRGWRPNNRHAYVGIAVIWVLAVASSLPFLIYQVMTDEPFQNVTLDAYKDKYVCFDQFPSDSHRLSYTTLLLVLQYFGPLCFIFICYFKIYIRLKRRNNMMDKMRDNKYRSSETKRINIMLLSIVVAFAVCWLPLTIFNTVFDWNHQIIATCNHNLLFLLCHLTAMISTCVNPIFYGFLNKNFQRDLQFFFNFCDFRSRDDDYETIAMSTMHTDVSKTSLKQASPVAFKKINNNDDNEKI
Chain of Galanin receptor type 2 (O43603 whole entry): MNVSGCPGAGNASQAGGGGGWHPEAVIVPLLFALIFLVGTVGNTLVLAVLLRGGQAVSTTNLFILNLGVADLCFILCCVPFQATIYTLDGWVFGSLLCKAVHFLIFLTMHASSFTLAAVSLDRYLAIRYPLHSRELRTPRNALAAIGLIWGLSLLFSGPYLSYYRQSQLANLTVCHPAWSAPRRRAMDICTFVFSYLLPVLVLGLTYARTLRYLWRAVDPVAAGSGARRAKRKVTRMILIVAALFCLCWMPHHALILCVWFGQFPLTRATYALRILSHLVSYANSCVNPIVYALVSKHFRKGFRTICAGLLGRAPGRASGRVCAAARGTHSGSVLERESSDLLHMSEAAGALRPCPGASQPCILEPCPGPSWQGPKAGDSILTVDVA

CC1=NN(c2nc(-c3ccc(C)cc3)cs2)C(=O)C1N=Nc1ccc(C(N)=O)cc1 (configuration not stated)
CC50 [1]: 6.04 µM (active) | AC50 [2]: 2.53 µM (active)

CCOC(=O)/C(=C\C=C1/Sc2ccccc2N1CC)C(C)=O
EC50 [3]: > 100 µM (active)

CCOc1ccc(Br)cc1C(=O)Nc1ccc(C(=O)NCC(C)C)cc1
EC50 [4]: 21.6 µM (active) | IC50 [5]: > 39.8 µM (not active) | EC50 [6]: 18.1 µM (active) | EC50 [7]: > 120 µM (not active) | EC50 [8]: > 55.7 µM (not active) | IC50 [9]: > 39.8 µM (not active)

COC(=O)c1ccccc1NC(=O)Cn1c(-c2nonc2N)nc2ccccc21
IC50 [10]: 4.83 µM (active) | IC50 [11]: 15 µM (not active) | IC50 [12]: > 80 µM (inactive)

Cn1c(=O)c2c(nc(SCc3ccccc3)n2Cc2ccc(Cl)cc2)n(C)c1=O
EC50 [13]: 7.96 µM (active) | EC50 [14]: > 500 µM (not active) | EC50 [15]: 10.7 µM (active) | EC50 [16]: > 150 µM (not active)

Cc1cc(C(=O)CN(C)CC(=O)N2CCCC2)c(C)n1Cc1ccccc1
EC50 [17]: > 30 µM (not active)
